Patent US20070015232A1, “Mitotic index assay” (DiscoveRx, Inc., priority 2005, published 2007)

Key:
[1] = test system: CHO-K1+cyto-EA cells transfected with cJUN-PL; assay: EFC mitotic index assay, CHO-K1+cyto-EA cells transiently transfected with cJUN-PL; type: cell-based; conditions: for Avg luminescence readout / R1 luminescence readout / R3 luminescence readout / Ratio (Avg vs 0 conc): overnight; for increase in EFC activity: overnight incubation
Description: (§1) The initial test of the cell cycle arresting compounds was performed on a double stable cell line having both of the constructs expressing the EA-NLS/NRS and GR-PL. (PL is β-galactosidase enzyme donor fragment and EA is the enzyme acceptor fragment available from DiscoveRx, Fremont, CA.). The parental line, C2C12 is derived from mouse muscle cells. In the experiments in which EA-NLS/NRS and GR-PL are expressed in the C2C12 parental cell line, the constructs were generated by subcloning the human GR sequence into a MFG-based retroviral vector that had been molecularly altered in a lab at Stanford. An MFG vector is described in U.S. Pat. No. 6,544,771. The EA-NLS/NRS fragment was subcloned into a wzl-based retroviral vector again molecularly altered in a lab at Stanford. In the experiments performed using a CHO-K1 parental cell line background the EA-NLS/NRS was subcloned into the Kpn I and Xba I sites of pcDNA3.1 Hygro vector from Invitrogen (catalog #V870-20). The plasmid was introduced into the cells via FuGene6 (Roche) transfection reagent. Cells were selected in the presence of 250 μg/mL of Hygromycin and single cell clones isolated that expressed the EA-NLS/NRS. The human GR gene was cloned by PCR and subcloned into the Xho I and Bam HI sites of the DiscoveRx vector-pCMV-myc-PL (C3). The plasmid was introduced into the selected EA-NLS/NRS expressing clone isolated above by FuGene 6 transfection. Another round of screening in the presence of 300-500 μg/mL of G418 was used to select GR-PL transfected clones. Clonal selection was performed to finally identify the clone that was used in these studies. In the studies using the CHO-K1+cyto-EA and cJUN-PL, the same Invitrogen pcDNA3.1 Hygro vector was used to express EA. In this case, the EA fragment was subcloned into the Kpn I/Not I sites of pcDNA3.1 Hygro. The plasmid DNA was introduced as described above using FuGene6 reagent. Cells were selected in the presence of 250 μg/mL of hygromycin and clonal selection was performed. The c-Jun gene was generated by PCR using an existing template copy of the gene and then subcloned into the Xho I/Bam HI sites of pCMV-PL-myc (C3).
To further test the concept of sequestering of one β-galactosidase enzyme fragment in the nucleus (in this case PL) while localizing the other component in the cytoplasm (in this case EA) the following experiment was carried out. […] The cyto-EA cells were transiently transfected with cJUN-PL plasmid DNA. Two days after the transfection, the cells were re-plated into a 96 well Corning white clear bottom multiwell plate at 20,000 cells/well. The cells were allowed to adhere overnight and the next day were treated with titrating concentrations of the six different cell cycle blocking compounds. The incubation was carried out overnight. The next day the media was removed from the cells and 100 μL of Tropix/ABI Gal screen cell lysis/substrate reagent was added to the cells.

[2] = test system: C2C12+EA-NLS/NRS+GR-PL cells; assay: EFC mitotic index assay, C2C12+EA-NLS/NRS+GR-PL cells (Stanford GR cells); type: cell-based, mouse; conditions: for Avg luminescence readout / R1 luminescence readout / R3 luminescence readout / Ratio (Avg vs 0 conc): 24 hours, 30 min read
Description: (§2) In all experiments described, 20,000 cells/well were plated in a 96 well Corning clear bottom white plate in a total volume of 100 μL. The cells were treated for 24 hours with 5 μL of either the appropriate vehicle control or varying concentrations of the six compounds listed above. The next day, 100 μL of Tropix/ABI Gal screen cell lysis buffer/substrate mixture (24:1 ratio of component) was added to the cells/media and the plate was read on the Victor II luminescent plate reader at 30, 60 and 120 minutes after the lysis/substrate addition.
as §1

[3] = test system: Clone #69 CHO-K1 cells expressing EA-NLS/NRS and GR-PL; assay: EFC assay in stable clone #69 (CHO-K1, EA-NLS/NRS and GR-PL) with or without RU486 pre-incubation; type: cell-based; conditions: for effect of incubation with RU486 on the EFC response (in words): 10 μM RU486 pre-incubation for one hour; for Avg luminescence readout / R1 luminescence readout / R3 luminescence readout / Ratio (Avg vs 0 conc): overnight, vehicle pre-incubation
Description: In the next experiment, a stable clone (clone #69) expressing both EA-NLS/NRS and GR-PL was isolated in a CHO-K1 parental background. […] 20,000 cells/well were plated in a 96 well white coming multi-well plate and allowed to adhere overnight. The next day, the cells were washed two times with serum free F12 media and 100 μL of serum free F12 media was added to the cells. The cells were then incubated in either vehicle (ethanol-1% final concentration) or 10 μM RU486 for one hour. To the cells, three different concentrations of dexamethasone (300, 100, 30 μM) (an agonist of GR), RU486 (30, 10, 3.33 μM), colchicine (1, 0.3, 0.1 μ/mL) or nocodazole (10, 3.33, 1.11 μg/mL) were added and the incubation went overnight at 37° C. with 5% CO2. The next day, the media was aspirated off and 100 μL of Tropix/ABI Gal screen cell lysis/substrate reagent was added to the cells. The plate was read on the Victor II reader at 30, 60 and 120 minutes.

[4] = test system: CHO-K1+EA-NLS/NRS+GR-PL cells; assay: EFC mitotic index assay, CHO-K1+EA-NLS/NRS+GR-PL cells, antibiotic selected pool (DX M19/GR pool); type: cell-based; conditions: 24 hours, 30 min read
Description: as §2, §1
In the next experiment, an antibiotic selected pool population of CHO-K1 cells that express EA-NLS/NRS and GR-PL were tested with the same six set of cell cycle blocking compounds. […] FIGS. 2a and 2b show the immunofluorescence localization of EA and GR-PL in that the blue DAPI nuclear staining can be seen to be concentrated in the nucleus, while the green fluorescein stain on the antibody (from Abcam PLC) to the glucocorticoid receptor is seen in the cytoplasm. […] Again, six tables are presented one for each of the six drugs tested.
This only occurs with compounds that block the cells in mitosis, allowing EA and ProLabel to complement.

[5] = High conc (nocodazole 10 μg/mL, colchicine 1 μ/mL, dexamethasone 300 μM, RU486 30 μM)
[6] = Low conc (nocodazole 1.11 μg/mL, colchicine 0.1 μ/mL, dexamethasone 30 μM, RU486 3.33 μM)
[7] = Med conc (nocodazole 3.33 μg/mL, colchicine 0.3 μ/mL, dexamethasone 100 μM, RU486 10 μM)

COc1cc2c(c(OC)c1OC)-c1ccc(OC)c(=O)cc1[C@@H](NC(C)=O)CC2 [Colchicine, colchicine]
Avg luminescence readout ([1]; 0.3 μg/mL): 8548 | R1 luminescence readout ([1]; 0.3 μg/mL): 7491 | R3 luminescence readout ([1]; 0.3 μg/mL): 9730 | Ratio (Avg vs 0 conc) ([1]; 0.3 μg/mL): 1.2 | Avg luminescence readout ([1]; 1.0 μg/mL): 10762 | R1 luminescence readout ([1]; 1.0 μg/mL): 11290 | R3 luminescence readout ([1]; 1.0 μg/mL): 9929 | Ratio (Avg vs 0 conc) ([1]; 1.0 μg/mL): 1.5 | Avg luminescence readout ([1]; 3.0 μg/mL): 13255 | R1 luminescence readout ([1]; 3.0 μg/mL): 12822 | R3 luminescence readout ([1]; 3.0 μg/mL): 13005 | Ratio (Avg vs 0 conc) ([1]; 3.0 μg/mL): 1.9 | Avg luminescence readout ([1]; 10.0 μg/mL): 14719 | R1 luminescence readout ([1]; 10.0 μg/mL): 13772 | R3 luminescence readout ([1]; 10.0 μg/mL): 14302 | Ratio (Avg vs 0 conc) ([1]; 10.0 μg/mL): 2.1 | increase in EFC activity [1]: ~2.1 fold | Avg luminescence readout ([2]; 0.03 μM): 11782 | R1 luminescence readout ([2]; 0.03 μM): 10442 | R3 luminescence readout ([2]; 0.03 μM): 12456 | Ratio (Avg vs 0 conc) ([2]; 0.03 μM): 1 | Avg luminescence readout ([2]; 0.1 μM): 9170 | R1 luminescence readout ([2]; 0.1 μM): 6763 | R3 luminescence readout ([2]; 0.1 μM): 10724 | Ratio (Avg vs 0 conc) ([2]; 0.1 μM): 1 | Avg luminescence readout ([2]; 0.3 μM): 11243 | R1 luminescence readout ([2]; 0.3 μM): 11132 | R3 luminescence readout ([2]; 0.3 μM): 12160 | Ratio (Avg vs 0 conc) ([2]; 0.3 μM): 1 | Avg luminescence readout ([2]; 1 μM): 12083 | R1 luminescence readout ([2]; 1 μM): 11891 | R3 luminescence readout ([2]; 1 μM): 11866 | Ratio (Avg vs 0 conc) ([2]; 1 μM): 1 | effect of incubation with RU486 on the EFC response (in words) [3]: not blocked by the incubation with RU486 | Avg luminescence readout [3, 5]: 1623 | R1 luminescence readout [3, 5]: 1850 | R3 luminescence readout [3, 5]: 1323 | Ratio (Avg vs 0 conc) [3, 5]: 4 | Avg luminescence readout [3, 6]: 1136 | R1 luminescence readout [3, 6]: 1274 | R3 luminescence readout [3, 6]: 1007 | Ratio (Avg vs 0 conc) [3, 6]: 3 | Avg luminescence readout [3, 7]: 1241 | R1 luminescence readout [3, 7]: 1345 | R3 luminescence readout [3, 7]: 1073 | Ratio (Avg vs 0 conc) [3, 7]: 3 | Avg luminescence readout ([4]; 0.03 μM): 3412 | R1 luminescence readout ([4]; 0.03 μM): 3128 | R3 luminescence readout ([4]; 0.03 μM): 3727 | Ratio (Avg vs 0 conc) ([4]; 0.03 μM): 1 | Avg luminescence readout ([4]; 0.1 μM): 5814 | R1 luminescence readout ([4]; 0.1 μM): 6507 | R3 luminescence readout ([4]; 0.1 μM): 4886 | Ratio (Avg vs 0 conc) ([4]; 0.1 μM): 2 | Avg luminescence readout ([4]; 0.3 μM): 7251 | R1 luminescence readout ([4]; 0.3 μM): 7078 | R3 luminescence readout ([4]; 0.3 μM): 7341 | Ratio (Avg vs 0 conc) ([4]; 0.3 μM): 3 | Avg luminescence readout ([4]; 1 μM): 11843 | R1 luminescence readout ([4]; 1 μM): 10671 | R3 luminescence readout ([4]; 1 μM): 13178 | Ratio (Avg vs 0 conc) ([4]; 1 μM): 4

COC(=O)Nc1nc2ccc(C(=O)c3cccs3)cc2[nH]1 [Nocodazole, nocodazole]
Avg luminescence readout ([1]; 3.0 μg/mL): 9887 | R1 luminescence readout ([1]; 3.0 μg/mL): 9509 | R3 luminescence readout ([1]; 3.0 μg/mL): 9751 | Ratio (Avg vs 0 conc) ([1]; 3.0 μg/mL): 1.4 | Avg luminescence readout ([1]; 10.0 μg/mL): 12728 | R1 luminescence readout ([1]; 10.0 μg/mL): 11991 | R3 luminescence readout ([1]; 10.0 μg/mL): 12371 | Ratio (Avg vs 0 conc) ([1]; 10.0 μg/mL): 1.8 | Avg luminescence readout ([1]; 30.0 μg/mL): 11870 | R1 luminescence readout ([1]; 30.0 μg/mL): 10083 | R3 luminescence readout ([1]; 30.0 μg/mL): 12287 | Ratio (Avg vs 0 conc) ([1]; 30.0 μg/mL): 1.6 | Avg luminescence readout ([1]; 100.0 μg/mL): 14898 | R1 luminescence readout ([1]; 100.0 μg/mL): 13010 | R3 luminescence readout ([1]; 100.0 μg/mL): 16060 | Ratio (Avg vs 0 conc) ([1]; 100.0 μg/mL): 2.1 | increase in EFC activity [1]: ~2.1 fold | Avg luminescence readout ([2]; 0.3 μg/mL): 4443 | R1 luminescence readout ([2]; 0.3 μg/mL): 4243 | R3 luminescence readout ([2]; 0.3 μg/mL): 4599 | Ratio (Avg vs 0 conc) ([2]; 0.3 μg/mL): 1 | Avg luminescence readout ([2]; 1.0 μg/mL): 6354 | R1 luminescence readout ([2]; 1.0 μg/mL): 6029 | R3 luminescence readout ([2]; 1.0 μg/mL): 6678 | Ratio (Avg vs 0 conc) ([2]; 1.0 μg/mL): 2 | Avg luminescence readout ([2]; 3.3 μg/mL): 6068 | R1 luminescence readout ([2]; 3.3 μg/mL): 5669 | R3 luminescence readout ([2]; 3.3 μg/mL): 6360 | Ratio (Avg vs 0 conc) ([2]; 3.3 μg/mL): 2 | Avg luminescence readout ([2]; 10.0 μg/mL): 5867 | R1 luminescence readout ([2]; 10.0 μg/mL): 4401 | R3 luminescence readout ([2]; 10.0 μg/mL): 5806 | Ratio (Avg vs 0 conc) ([2]; 10.0 μg/mL): 2 | increase in EFC activity ([2]; treatment 1-10 μg/mL): ~2 fold | effect of incubation with RU486 on the EFC response (in words) [3]: not blocked by the incubation with RU486 | Avg luminescence readout [3, 5]: 11592 | R1 luminescence readout [3, 5]: 11504 | R3 luminescence readout [3, 5]: 11616 | Ratio (Avg vs 0 conc) [3, 5]: 4 | Avg luminescence readout [3, 6]: 11575 | R1 luminescence readout [3, 6]: 11488 | R3 luminescence readout [3, 6]: 11606 | Ratio (Avg vs 0 conc) [3, 6]: 4 | Avg luminescence readout [3, 7]: 11445 | R1 luminescence readout [3, 7]: 11364 | R3 luminescence readout [3, 7]: 11457 | Ratio (Avg vs 0 conc) [3, 7]: 4 | Avg luminescence readout ([4]; 0.3 μg/mL): 15528 | R1 luminescence readout ([4]; 0.3 μg/mL): 15003 | R3 luminescence readout ([4]; 0.3 μg/mL): 13585 | Ratio (Avg vs 0 conc) ([4]; 0.3 μg/mL): 2 | Avg luminescence readout ([4]; 1.0 μg/mL): 24777 | R1 luminescence readout ([4]; 1.0 μg/mL): 23225 | R3 luminescence readout ([4]; 1.0 μg/mL): 24165 | Ratio (Avg vs 0 conc) ([4]; 1.0 μg/mL): 3 | Avg luminescence readout ([4]; 3.3 μg/mL): 23766 | R1 luminescence readout ([4]; 3.3 μg/mL): 24010 | R3 luminescence readout ([4]; 3.3 μg/mL): 23172 | Ratio (Avg vs 0 conc) ([4]; 3.3 μg/mL): 3 | Avg luminescence readout ([4]; 10.0 μg/mL): 25709 | R1 luminescence readout ([4]; 10.0 μg/mL): 22978 | R3 luminescence readout ([4]; 10.0 μg/mL): 28584 | Ratio (Avg vs 0 conc) ([4]; 10.0 μg/mL): 3
